Here are results for 73 substances from publication PMC4865845, “A human genome-wide loss-of-function screen identifies effective chikungunya antiviral drugs” (Nature Communications, 2016).

The series has as its system CHIKV. It is filed as cell-based, chikungunya virus.
Consider “Hs_GLTSCR2_6 (sense CCGGAGCTTCCTACAATCCAT; chemistry not given here)”, for which the Score_si3 came out at 1.7.

As for “Hs_ENTPD2_1 (CACGTCCATGTTTATCTACAA; chemistry not given here)”, the Score_si2 was 1.25.

The substance “Hs_TAZ_2 (sense CCGCCACATCTGGAACCTGAA; chemistry not given here)” gave a Score_si1 of 2.45.

Regarding “Hs_AOF2_2 (ACATCTTACCTTAGTCATCAA; chemistry not given here)”, the Score_si4 turned out to be 0.88.

Take “s5571 (sense GCAGGACGAGGGTAAAGAA; chemistry not given here)”: the Score_si2 is reported as 0.56.

“Hs_CLCN6_4 (sense AAGATGTGAATTCAAGTATCA; chemistry not given here)” registered a Score_si1 of 2.72.

Regarding “Hs_PEX19_3 (CCCATTCAAGATTGTGCCATA; chemistry not given here)”, the Score_si4 came to 0.41.

“s19091 (sense CAACAACCTTACACGAGTA; chemistry not given here) [reference compound]” gave a Score_si2 of -0.78.

Substance “s1523 (sense CCGGCATCTTTGCTACCTA; chemistry not given here)” registered a Score_si4 of 0.87.

Take “Hs_ATP6AP2_1 (ATGGGCTAATATGGATACTAA; chemistry not given here)”: the Score_si2 is on record as 0.84.

The substance “s28367 (sense CGACAAGAACGAAGACAGA; chemistry not given here) [reference compound]” displayed a Score_si2 of -1.08.

As to “s19040 (sense GTACATAACATCAATTTCA; chemistry not given here)”, the Score_si4 was 0.32.

As to “s33487 (GGTTATCAATGACGAGCAA; chemistry not given here)”, the Score_si3 is recorded as 1.7.

“Hs_LBX1_2 (sense CAAGGCCGAGATGACTTCCAA; chemistry not given here)” displayed a Score_si1 of 2.

Substance “Hs_SAFB_2 (sense AAGGTGGTAATCCTGACGAAA; chemistry not given here)” gave a Score_si2 of 0.95.

Take “Hs_UQCRFS1_2 (CAAACATTAATGTGAAATAAA; chemistry not given here)”: the Score_si4 stood at 0.3.

On to “Hs_COPS2_4 (sense ATCCATTAATTCTATTCTTGA; chemistry not given here)”, for which the Score_si4 was determined as 1.19.

“s34427 (GGTCAGAGACCATCCAGAA; chemistry not given here)” displayed a Score_si2 of 1.71.

As for “s18705 (sense GCTCGTTACCTACATAGTA; chemistry not given here) [reference compound]”, the Score_si2 was -0.84.

Take “s31318 (GTACATCTTCGAATACGAT; chemistry not given here)”: the Score_si2 amounted to 1.43.

In the case of “Hs_GP1BB_5 (sense ACGAGTCCTGAGGAGAGAA; chemistry not given here) [reference compound]”, the Score_si1 is -1.46.

Substance “s28378 (sense CATTGTCACTTATTCGACT; chemistry not given here)” came in with a Score_si4 of 1.57.

Take “Hs_EZH2_7 (AACCATGTTTACAACTATCAA; chemistry not given here)”: the Score_si4 was 0.98.

Substance “s5296 (sense GCTTCACCATCGAATCCAA; chemistry not given here)” registered a Score_si3 of 1.01.

In the case of “Hs_RARSL_3 (sense CACAGGAGTCTTCCTACAGTA; chemistry not given here) [reference compound]”, the Score_si1 is reported as -2.94.

In turn, “s5030 (sense GGTATGCGACGGGAAAGTA; chemistry not given here)” gave a Score_si3 of 1.75.

Consider “s17901 (GGAAATCGGCCTACAAGAT; chemistry not given here)”, for which the Score_si3 was 1.51.

“Hs_ROCK1_1 (sense ACGGTTAGAACAAGAGGTAAA; chemistry not given here)”: the Score_si4 is 0.5.

Take “Hs_IRAK1_5 (sense CCGGGCAATTCAGTTTCTACA; chemistry not given here)”: the Score_si4 is listed as 1.36.

For the substance “s35018 (GTGTGAAGGTAGACCGTGA; chemistry not given here)”, the Score_si4 stood at 0.46.

Substance “s19089 (sense GGATAAGACAGTAACCCGA; chemistry not given here) [reference compound]” returned a Score_si3 of -0.56.

With “s3626 (GAATTTGCGATGTACTTAA; chemistry not given here)”, the Score_si2 amounted to 1.98.

For the substance “Hs_KIAA1012_2 (sense CAGGGTTGCTATTTACTTAAA; chemistry not given here)”, the Score_si1 is recorded as 2.22.

Take “s8005 (sense CCATGACTCCTGACTACCA; chemistry not given here)”: the Score_si4 was determined as 0.75.

Take “Hs_ZA20D1_2 (CAGGATGACATCGTTCAAGAA; chemistry not given here)”: the Score_si3 came to 1.15.

“Hs_SAFB_1 (sense ACGGACTGTAGTAATGGATAA; chemistry not given here)” yielded a Score_si3 of 0.86.

The substance “Hs_PHF10_5 (ATGGCAGTGTATGGAATGTAA; chemistry not given here)” returned a Score_si1 of 2.93.

“Hs_FLJ20257_2 (sense CACCAAGTGGGTGCATCTGAA; chemistry not given here)” yielded a Score_si1 of 2.26.

“Hs_NPEPL1_3 (CTGCAATGAGATGAACACCGA; chemistry not given here)”: the Score_si1 is 2.35.

“s8543 (CCTCAACAGTCACGTCAGA; chemistry not given here)” yielded a Score_si4 of -0.08.

In the case of “s79 (sense CCAGCTATCTATAACCTTA; chemistry not given here)”, the Score_si4 was found to be 2.02.

In turn, “Hs_NCOA1_1 (CAGCGGGAACTGTACAGTCAA; chemistry not given here)” returned a Score_si2 of 1.96.

“s3146 (GACCATGGATAATAAGAAA; chemistry not given here)” returned a Score_si4 of -0.15.

As to “Hs_PRPF4B_5 (sense TCGTCTGATGATAACCTTGAA; chemistry not given here)”, the Score_si1 worked out at 2.38.

The substance “Hs_SAFB_3 (sense CTGCCATATTGTAGCTCAATA; chemistry not given here)” gave a Score_si1 of 1.4.

For “Hs_GNG13_4 (sense CCCACTCACTCCATCTTGTAA; chemistry not given here)”, the Score_si3 turned out to be 1.13.

As to “s38242 (CGGTCTCATGTACCAGAAA; chemistry not given here)”, the Score_si3 turned out to be 0.52.

“Hs_LRIG2_1 (AGGGATGTCATTGTAAATATA; chemistry not given here) [reference compound]” had a Score_si1 of -2.53.

Substance “s9627 (GGACCAGTTTGAGAGTGAA; chemistry not given here)” had a Score_si2 of 1.39.

Substance “Hs_KAZALD1_2 (sense ACAGGGCTAGGCACCAATAAA; chemistry not given here)” returned a Score_si1 of 1.74.

Consider “Hs_MDS032_1 (TCGAATCATGCCTAAACTCAA; chemistry not given here)”, for which the Score_si4 is on record as 1.39.

With “s14706 (sense GCATGATCTAGATCGAGTA; chemistry not given here)”, the Score_si3 is reported as 1.88.

For the substance “s13807 (sense GCATCTGAAGACTCAGGCA; chemistry not given here)”, the Score_si4 was -0.26.

The substance “Hs_FLJ20530_2 (sense TTGACTTATCTTCATCATAAA; chemistry not given here)” came in with a Score_si1 of 2.95.

In the case of “s1907 (sense GAACTTAGCTAAATTGACT; chemistry not given here)”, the Score_si4 is listed as 0.58.

Regarding “Hs_SEC61B_1 (sense TTTAATTCACTTATACTGAAA; chemistry not given here)”, the Score_si1 is 1.55.

“Hs_ZZZ3_2 (TAGGAATTTACCTGAATATAA; chemistry not given here) [reference compound]” returned a Score_si2 of -2.58.

“Hs_GNG13_3 (sense CCCACTCACAACATCTTGTAA; chemistry not given here)”: the Score_si4 amounted to 0.93.

Regarding “Hs_CDK4_3 (sense ACCCTGGTGTTTGAGCATGTA; chemistry not given here)”, the Score_si3 was determined as 1.02.

With “Hs_RARSL_4 (sense CCAGCTTTCCAGAGTGTTGAA; chemistry not given here) [reference compound]”, the Score_si3 was -1.26.

Consider “s9628 (GACCTAAAGAAGGAGATTA; chemistry not given here)”, for which the Score_si4 was determined as 1.13.

“Hs_KRTCAP2_5 (sense CTCGCTCACTGCCTTCAATAA; chemistry not given here)” displayed a Score_si3 of 1.15.

Take “Hs_CAMKK2_6 (sense CCGCAAGATCTTCTCTGGGAA; chemistry not given here)”: the Score_si1 is recorded as 1.65.

Substance “Hs_PD2_2 (CACCATTATTGTGAGCAGCAA; chemistry not given here)” registered a Score_si1 of 1.77.

The substance “Hs_LOH12CR1_1 (sense CCCGATGTCATCAAGTTGCAA; chemistry not given here)” had a Score_si1 of 2.42.

“Hs_DHX38_1 (CAGGATTTGGAAATAAATTTA; chemistry not given here)” had a Score_si1 of 2.48.

In turn, “Hs_MAP3K14_1 (CAGGACTCACGTAGCATTAAA; chemistry not given here)” came in with a Score_si2 of 1.59.

With “Hs_DC-UbP_1 (AAGGCAGTTAAGAAATAGATA; chemistry not given here)”, the Score_si2 turned out to be 1.13.

For “Hs_RRBP1_1 (sense CACGTAGAGGATGGTGACATA; chemistry not given here)”, the Score_si2 is given as 1.82.

“Hs_CHD8_2 (sense AAGGATAAGAGGATACATCAA; chemistry not given here)” yielded a Score_si3 of 1.53.

In turn, “s619 (sense CTGCAGTTGTGGTTGGATA; chemistry not given here)” yielded a Score_si1 of 1.92.

With “s27235 (sense AGACCCACACTAAAGAATT; chemistry not given here) [reference compound]”, the Score_si2 is recorded as -0.6.

Substance “Hs_CIZ1_2 (sense CAGCATGGAAGAGATTCAGAA; chemistry not given here) [reference compound]” yielded a Score_si2 of -1.05.
